From US20240238214A1, “NANOCONSTRUCTS AND NANOPARTICLE-MEDIATED DELIVERY OF IMMUNOGENIC CELL DEATH INDUCERS FOR ENHANCING CANCER IMMUNOTHERAPY” (Purdue Research Foundation, priority 2021, published 2024)
Converted amounts (≈) assume the structure as drawn.

Key:
[1] = system: CT26 murine carcinoma, B16F10 murine carcinoma and 4T1 breast mammary carcinoma cells; assay: CRT exposure on cell surface (flow cytometry); type: cell-based; settings: treated at IC50 for 6 hours; compared to control groups
Protocol: (§1) The release of DAMPs from the treated cells were then analyzed (e.g., CRT exposure was measured by flow cytometry, HMGB1 was measured by quantifying western blot, and ATP was measured by ATP determination kit).
After 6 hours, cells were washed with PBS and fixed with 4% […] (PFA). Fixed cells were incubated with FITC-labeled CRT antibodies. Cells were analyzed by the Accuri C6 flow cytometer to determine the population of CRT-positive cells.

[2] = cited from earlier work
[3] = system: CT26 murine carcinoma, B16F10 murine carcinoma and 4T1 breast mammary carcinoma cells; assay: ATP secretion into medium (ATP determination kit); type: cell-based; settings: treated at IC50 for 24 hours; supernatant
Protocol: as §1
After 24 hours, supernatants were collected, and the amount of ATP in the supernatant was measured with ATP determination kit.

physchem = settings: aqueous with cosolvent or surfactant or cyclodextrin
CT26 murine carcinoma = assay: Cytotoxicity by MTT assay, CT26; type: cell-based; settings: Mus musculus; CT26 cells
Protocol: (§2) As the nanoparticles hereof can be used to deliver ICD inducers to create tumor antigens, which need to be taken up by APCs, in certain embodiments, it is important for the formulations to kill tumor cells, while saving the host immune cells.
Cytotoxicity was assessed by the MTT assay. CT26 cells were seeded in 96 wells with 3,000 cells/well and cultured until 30% confluency. Cells were treated with varying concentrations of Drug, Drug@NP, Drug@NP-pD, Drug@NP-pD-ATP for 24 hours. After 24 hours, media was replaced, the cells were incubated for an additional 24 hours, and an MTT assay was performed to measure the number of viable cells present (see FIGS. 13A and 14A).

[4] = system: CT26 murine carcinoma, B16F10 murine carcinoma and 4T1 breast mammary carcinoma cells; assay: HMGB1 release into medium (western blot); type: cell-based; settings: treated at IC50 for 24 hours; supernatant
Protocol: After 24 hours, supernatants were collected, and a western blot immunoassay was performed to determine the amount of HMGB1 present.

CT26 cells = assay: In vivo tumor vaccination study; design: species or system Balb/c mice; settings: cells treated at 100× IC50 for 24 hours; three million dead cells; 500,000 live CT26 cells after 9 days
Protocol: The vaccination study, a standard test to verify bona fide ICD, was performed with PTX and CFZ (e.g., the candidate drugs) in vivo. The vaccination study involved generating tumor antigens by exposing tumor cells to lethal dose of ICD inducers. Potential ICD inducer-treated cells (i.e., the primary dose) were injected subcutaneously to immunocompetent mice. One week later, live tumor cells were injected on the contralateral side (i.e., the rechallenge), and the growth of the tumor was monitored to determine if the drug-killed tumor cells (i.e., the primary dose) can serve as a vaccine and prevent the growth of a live cell challenge.
Dead cells were collected and washed with PBS twice to remove excess amount of the drug.
Three million dead cells were injected into the right flanks of 6-week-old immunocompetent female Balb/c mice (i.e., the primary dose), the syngeneic host of CT26 cells. After 9 days, 500,000 live CT26 cells (live tumor cells) were inoculated subcutaneously in the contralateral side of the mice (i.e., the rechallenge) and tumor growth was monitored to determine the development of anti-tumor immunity.

[5] = system: CT26 cells phagocytosed by JAWSII DCs; assay: Phagocytosis assay; type: cell-based, murine; settings: CT26 treated with IC50 of drug, co-cultured with JAWSII for 24 hours
Protocol: A phagocytosis assay was performed to observe whether cells killed by ICD inducers will be taken up by dendritic cells (DCs).
CT26 cells were stained with Cell Tracker Green for 30 mins (0.5 μM) and washed once with cold serum free DMEM. CT26 cells were incubated overnight in 10% FBS media to allow any unbound dye to be inactivated. CT26 cells were collected and seeded (150,000 cells/well) in 6 wells plate for 24 hours. JAWSII cells were collected and stained with Cell Tracker Deep Red for 30 mins (0.5 μM) and washed once with cold serum free RPMI. JAWSII cells were incubated overnight in 10% FBS media to allow any unbound dye to be inactivated. […] After the treatment, CT26 containing 6 wells plate was centrifuged at 500 g×8 mins. Supernatant was aspirated to remove any remaining drugs. JAWSII cells (150,000 cells/well) were added to CT26, and cells were co-cultured for 24 hours. The co-cultured cells were collected, resuspended in the staining buffer, and analyzed by the Accuri C6 flow cytometer.

JAWSII DCs = assay: Cytotoxicity by MTT assay, JAWSII; type: cell-based, murine; settings: 96 hours
Protocol: as §2
For JAWSII cells, JAWSII cells were seeded in 96 wells with 20,000 cells/well.

apyrase = target: T1, apyrase (Solanum tuberosum, UniProt P80595); assay: ATP level after incubation with apyrase (ATP bioluminescence assay); type: biochemical; settings: 10 μM ATP, 5 units/mL apyrase, 37° C., 10 minutes
T1 construct: purchased Thermo Fisher Scientific Inc. (Waltham, MA)
T1 sequence (P80595 1-454): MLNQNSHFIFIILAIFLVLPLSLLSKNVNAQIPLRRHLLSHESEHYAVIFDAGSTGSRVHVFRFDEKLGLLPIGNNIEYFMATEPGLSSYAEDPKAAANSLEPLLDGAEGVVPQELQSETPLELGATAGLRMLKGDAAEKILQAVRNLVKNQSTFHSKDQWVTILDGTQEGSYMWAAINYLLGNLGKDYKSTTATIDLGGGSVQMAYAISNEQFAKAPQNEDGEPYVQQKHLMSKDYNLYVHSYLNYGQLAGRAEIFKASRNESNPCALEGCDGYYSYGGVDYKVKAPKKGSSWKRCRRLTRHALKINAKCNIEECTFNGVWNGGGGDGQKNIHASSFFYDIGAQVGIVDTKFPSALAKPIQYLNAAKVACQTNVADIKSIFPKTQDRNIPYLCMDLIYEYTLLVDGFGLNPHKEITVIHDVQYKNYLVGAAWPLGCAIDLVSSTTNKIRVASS
Protocol: Further, to confirm the activity of apyrase against ATP, 10 μM ATP was incubated with or without 5 units/mL apyrase in 37° C. for 10 minutes. The ATP level after incubation was measured by ATP bioluminescence assay.

JAWSII cells = assay: Stability against apyrase (DC migration assay in Transwell); type: cell-based, murine; settings: 10 μM ATP, 0.5 units of apyrase, 4 hours
Protocol: To screen the effect of degrading enzyme to the nanoparticle-bound ATP, apyrase (a CD39 equivalent) was co-incubated with ATP or NP-pD-ATP, and a DC migration assay was performed in a Transwell (FIG. 9A). For the migration assay, 100 μL of 2×10^5 JAWSII cells, suspended in media, were added to the top of the Transwell (8 μm pore size). 600 μL of media containing 10 μM ATP conjugated nanoparticle was added to the bottom well (with or without 0.5 units of apyrase). Cells were incubated in 37° C. for 4 hours. Bottom media was collected to analyze the number of cells migrated by flow cytometry.

SMILES	CRT exposure [1]	water solubility [2]	ATP secretion [3]	solubility (physchem)	IC50 (CT26 murine carcinoma)	HMGB1 release [4]	tumor growth after live CT26 rechallenge in mice vaccinated with drug-treated dead cells (CT26 cells)	uptake of CT26 to the dendritic cells [5]	concentration with sudden decrease of DC viability (JAWSII DCs)	ATP level after incubation with apyrase (apyrase)	chemotactic ability (DC migration) in the presence of apyrase (JAWSII cells)
CC(C)C[C@H](NC(=O)[C@H](CCc1ccccc1)NC(=O)CN1CCOCC1)C(=O)N[C@@H](Cc1ccccc1)C(=O)N[C@@H](CC(C)C)C(=O)[C@@]1(C)CO1 [CFZ, carfilzomib]	induced the exposure of CRT	0.7 to 3.6 µg/mL	caused the secretion of ATP	9 µg/mL (≈ 12.5 µM)	15 nM	induced the release of HMGB1	tumors did not grow	significantly increased the uptake of CT26 to the dendritic cells			
Nc1ccn([C@@H]2O[C@H](CO)[C@@H](O)C2(F)F)c(=O)n1 [GEM, gemcitabine]	failed to induce CRT exposure					failed to induce HMGB1 secretion	Tumors grew in all animals				
O=C1[O][Pt]2([NH][C@@H]3CCCC[C@H]3[NH]2)[O]C1=O [OXA, oxaliplatin]						induced the release of HMGB1	tumors did not grow				
CC(=O)O[C@H]1C(=O)[C@@]2(C)[C@H]([C@H](OC(=O)c3ccccc3)[C@]3(O)C[C@H](OC(=O)[C@H](O)[C@@H](NC(=O)c4ccccc4)c4ccccc4)C(C)=C1C3(C)C)[C@]1(OC(C)=O)CO[C@@H]1C[C@@H]2O [PTX, paclitaxel]	induced the exposure of CRT		caused the secretion of ATP		250 nM	induced the release of HMGB1	tumors did not grow	significantly increased the uptake of CT26 to the dendritic cells	≥ 30 µM		
Nc1ncnc2c1ncn2[C@@H]1O[C@H](COP(=O)(O)OP(=O)(O)OP(=O)(O)O)[C@@H](O)[C@H]1O [free ATP, adenosine triphosphate]										not detectable	completely abolished the chemotactic ability of free ATP
